Here are results for 38 compounds from ChEMBL document CHEMBL4673282, “Identification of a New Heterocyclic Scaffold for Inhibitors of the Polo-Box Domain of Polo-like Kinase 1” (J Med Chem, 2020).

≈ marks a conversion by molar mass, not a printed value.

Series [1] is described as follows: Aqueous solubility of compound. The format is physicochemical. The settings on record: buffer.
In series [2] the target is Serine/threonine-protein kinase PLK1 (Homo sapiens, UniProt P53350). The series can be described thus: Inhibition of biotin-Ahx-CETFDPPLHSpTAI-NH2 binding to recombinant human full-length HA-EGFP-tagged Plk1 PBD expressed in HEK293A cells preincubated for 30 mins followed by biotin-Ahx-CETFDPPLHSpTAI-NH2 addition and measured after 1 hr by 3,3',5,5'-tetramethylbenzidine substrate based ELISA. The format is cell-based, HEK293-A. (In general: An ELISA detects its analyte on a solid surface through an enzyme-linked reagent.)

Series [3] in a line: Half life in rat liver microsomes at 1 uM measured up to 60 mins in presence of NADPH generating system. The settings on record: 1 h.
Another series in a line: in vitro. The following applies: PAMPA. In general terms: In PAMPA a lipid-coated filter parts donor from acceptor wells.

Serine/threonine-protein kinase PLK1, sequence (P53350 whole entry): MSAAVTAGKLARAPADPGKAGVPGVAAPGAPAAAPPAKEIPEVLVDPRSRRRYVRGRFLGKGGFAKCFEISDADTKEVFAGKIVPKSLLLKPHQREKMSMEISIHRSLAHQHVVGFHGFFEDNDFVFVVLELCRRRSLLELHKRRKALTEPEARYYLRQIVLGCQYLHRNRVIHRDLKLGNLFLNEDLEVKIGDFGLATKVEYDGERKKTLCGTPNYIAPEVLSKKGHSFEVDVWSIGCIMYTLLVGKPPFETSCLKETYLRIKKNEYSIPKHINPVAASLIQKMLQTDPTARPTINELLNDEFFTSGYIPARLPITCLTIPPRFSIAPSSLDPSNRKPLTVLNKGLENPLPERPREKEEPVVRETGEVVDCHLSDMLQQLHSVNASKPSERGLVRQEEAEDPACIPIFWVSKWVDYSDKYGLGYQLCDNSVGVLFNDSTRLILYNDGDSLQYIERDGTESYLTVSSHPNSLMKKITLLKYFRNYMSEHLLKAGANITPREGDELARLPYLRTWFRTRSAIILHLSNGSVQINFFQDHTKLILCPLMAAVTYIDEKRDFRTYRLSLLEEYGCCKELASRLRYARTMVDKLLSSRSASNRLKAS
Description for in vitro: Permeability of the compound by PAMPA

Turning to `COCCCn1c(=O)c2ccccc2n2c(S)nnc12`, the solubility (usually how much of the substance goes into solution per volume) in series [1] stood at 31.2 µg/mL (≈ 107 µM). In series [2], the IC50 (as a rule, the concentration at which inhibition is half-maximal) is 1750 nM.
In series [1], `CCCCCn1c(=O)c2ccccc2n2c(S)nnc12` yielded a solubility of 4.2 µg/mL (≈ 14.6 µM). The IC50 in series [2] was 1970 nM.
For the compound `Cc1cccc(-n2c(=O)c3ccccc3n3c(S)nnc23)c1C`, the IC50 in series [2] is 1850 nM.
The compound `CC(C)(C)OC(=O)NCCCCCC(=O)NCCCn1c(=O)c2cc(F)ccc2n2c(=S)[nH]nc12` returned a solubility in series [1] of over 75 µg/mL. The t1/2 in series [3] is reported as over 30 min. For the same compound, the Papp (commonly the rate of passage across a membrane or cell layer, normalised by area and donor concentration) in “in vitro” was 405 ×10⁻⁶ cm/s.
Compound `NS(=O)(=O)CCCC(=O)NCCCn1c(=O)c2cc(F)ccc2n2c(=S)[nH]nc12` displayed a solubility in series [1] of 42.4 µg/mL (≈ 95.8 µM). Besides, the t1/2 in series [3] was over 30 min. Besides, in “in vitro”, the apparent permeability coefficient (Papp) turned out to be 3 ×10⁻⁶ cm/s.
In series [1], `O=C(CN1CCOCC1)NCCCn1c(=O)c2cc(F)ccc2n2c(=S)[nH]nc12` gave a solubility of over 62 µg/mL. For the same compound, the t1/2 in series [3] is on record as over 30 min. The same compound returned a Papp in “in vitro” of under 1 ×10⁻⁶ cm/s.
For `CNC(=S)N1CN(CCc2ccccc2)C(=O)c2cc(F)ccc21` the same measures were 4.5 µg/mL (≈ 13.1 µM), 2.2 min and 161 ×10⁻⁶ cm/s.
Take `Nc1nnc2n(CCc3ccccc3)c(=O)c3cc(F)ccc3n12`: in series [1], the solubility came out at 2.2 µg/mL (≈ 6.8 µM). For the same compound, the t1/2 in series [3] is given as 29.4 min. This compound also came in with a Papp in the series “in vitro” of 885 ×10⁻⁶ cm/s.
The like results for `O=c1c2ccc(F)cc2n2c(=S)[nH]nc2n1CCc1ccccc1` were, in that order, under 1 µg/mL, 22.7 min and 91 ×10⁻⁶ cm/s.
As for `O=c1c2ccncc2n2c(=S)[nH]nc2n1CCc1ccccc1`, the solubility in series [1] is 17.3 µg/mL (≈ 53.5 µM). In addition, the t1/2 in series [3] was 15.8 min. For the same compound, the Papp in the series “in vitro” turned out to be 202 ×10⁻⁶ cm/s.
Compound `CC(CN(C)C)n1c(=O)c2cc(F)ccc2n2c(=S)[nH]nc12` (racemic) gave a solubility in series [1] of over 47 µg/mL. Further, the t1/2 in series [3] is over 30 min. In the series “in vitro”, this compound gave a Papp of 186 ×10⁻⁶ cm/s.
On to `O=c1c2cccc(F)c2n2c(=S)[nH]nc2n1CCc1ccccc1`, for which the solubility in series [1] turned out to be 3.4 µg/mL (≈ 9.99 µM). Also, the t1/2 in series [3] is over 30 min. The Papp in the series “in vitro” amounted to 141 ×10⁻⁶ cm/s.
For `O=c1c2cc(Cl)ccc2n2c(=S)[nH]nc2n1CCC(F)(F)F` the same measures were 5.1 µg/mL (≈ 14.6 µM), over 30 min and 257 ×10⁻⁶ cm/s.
`NCCCn1c(=O)c2cc(F)ccc2n2c(=S)[nH]nc12.O=C(O)C(F)(F)F` yielded a solubility in series [1] of over 43 µg/mL. Besides, the t1/2 in series [3] was over 30 min. The same compound registered a Papp in “in vitro” of under 1 ×10⁻⁶ cm/s.
The compound `O=c1c2cc(F)ccc2n2c(=S)[nH]nc2n1CCc1ccc(Cl)cc1` yielded a solubility in series [1] of 1.2 µg/mL (≈ 3.2 µM). In addition, the t1/2 in series [3] was over 30 min. The Papp in the series “in vitro” was under 1 ×10⁻⁶ cm/s.
For `COc1cccc(CC(=O)NCCCn2c(=O)c3cc(F)ccc3n3c(=S)[nH]nc23)c1`, in series [1] (read-out: solubility), the solubility is over 65 µg/mL. The t1/2 in series [3] is recorded as 20.1 min. This compound also had a Papp in “in vitro” of 300 ×10⁻⁶ cm/s.
`O=c1c2cc(F)ccc2n2c(=S)[nH]nc2n1CCC(F)(F)F` registered a solubility in series [1] of 17.3 µg/mL (≈ 52.1 µM). In addition, the t1/2 in series [3] is over 30 min. The compound also registered a Papp in “in vitro” of 117 ×10⁻⁶ cm/s.
`O=C(NCCCn1c(=O)c2cc(F)ccc2n2c(=S)[nH]nc12)C1CCCC1`: the solubility in series [1] was over 58 µg/mL. In addition, the t1/2 in series [3] was over 30 min. This compound had a Papp in the series “in vitro” of 155 ×10⁻⁶ cm/s.
Compound `O=C(NCCCn1c(=O)c2cc(F)ccc2n2c(=S)[nH]nc12)c1ccccc1` had a solubility in series [1] of 21.9 µg/mL (≈ 55.1 µM). Also, in series [3], the t1/2 was over 30 min. Further, in the series “in vitro”, the Papp stood at 267 ×10⁻⁶ cm/s.
For `CCn1c(=O)c2ccccc2n2c(=S)[nH]nc12` the same measures were over 36 µg/mL, over 30 min and 427 ×10⁻⁶ cm/s.
The compound `CN(C)CCn1c(=O)c2cc(F)ccc2n2c(=S)[nH]nc12` had a solubility in series [1] of over 45 µg/mL. Besides, the t1/2 in series [3] was over 30 min. The Papp in the series “in vitro” was 117 ×10⁻⁶ cm/s.
In turn, `O=c1c2cc(F)ccc2n2c(=S)[nH]nc2n1CCN1CCOCC1` yielded a solubility in series [1] of over 52 µg/mL. Moreover, the t1/2 in series [3] is reported as over 30 min. The compound further had a Papp in the series “in vitro” of 67 ×10⁻⁶ cm/s.
With `O=c1c2cc(F)ccc2n2c(=S)[nH]nc2n1Cc1ccccc1`, in series [1], the solubility stood at 8.3 µg/mL (≈ 25.4 µM). The t1/2 in series [3] is over 30 min. The compound also returned a Papp in “in vitro” of 841 ×10⁻⁶ cm/s.
Take `CCCn1c(=O)c2ccccc2n2c(=S)n(CC(=O)c3ccccc3)nc12`: the IC50 in series [2] was over 50000 nM.
As to `O=c1c2cc(Br)ccc2n2c(=S)[nH]nc2n1CCc1ccccc1`, the solubility in series [1] is under 1 µg/mL. The t1/2 in series [3] is over 30 min. The same compound displayed a Papp in “in vitro” of 162 ×10⁻⁶ cm/s.
Compound `CC(=O)NCCCn1c(=O)c2cc(F)ccc2n2c(=S)[nH]nc12` gave a solubility in series [1] of over 50 µg/mL. In series [3], the t1/2 is over 30 min. In “in vitro”, this compound displayed a Papp of 18 ×10⁻⁶ cm/s.
Consider `O=c1c2cc(F)ccc2n2c(=S)[nH]nc2n1CCc1cccnc1`, for which the solubility in series [1] is 25.1 µg/mL (≈ 73.5 µM). Besides, the t1/2 in series [3] is recorded as over 30 min. This compound gave a Papp in the series “in vitro” of under 1 ×10⁻⁶ cm/s.
Regarding `O=c1c2ccccc2n2c(=S)[nH]nc2n1CCC(F)(F)F`, the solubility in series [1] worked out at 23.3 µg/mL (≈ 74.1 µM). Further, the t1/2 in series [3] is listed as over 30 min. Also, the Papp in the series “in vitro” is 82 ×10⁻⁶ cm/s.
As to `O=c1c2cc(F)ccc2n2c(=S)[nH]nc2n1CCN1CCCCC1`, the solubility in series [1] was found to be 2.4 µg/mL (≈ 6.91 µM). The t1/2 in series [3] was over 30 min. This compound also yielded a Papp in the series “in vitro” of 358 ×10⁻⁶ cm/s.
In turn, `CN1CCN(CC(=O)NCCCn2c(=O)c3cc(F)ccc3n3c(=S)[nH]nc23)CC1` had a solubility in series [1] of over 64 µg/mL. The t1/2 in series [3] is reported as over 30 min. This compound registered a Papp in the series “in vitro” of under 1 ×10⁻⁶ cm/s.
As for `O=c1c2cc(F)ccc2n2c(=S)[nH]nc2n1CCCO`, in series [1], the solubility was over 43 µg/mL. For the same compound, in series [3], the t1/2 is reported as over 30 min. The compound further returned a Papp in the series “in vitro” of 222 ×10⁻⁶ cm/s.
The like results for `CC(C)(C)OC(=O)NC1CCC(C(=O)NCCCn2c(=O)c3cc(F)ccc3n3c(=S)[nH]nc23)CC1` (racemic) were, in that order, over 77 µg/mL, 24.8 min and 330 ×10⁻⁶ cm/s.
`O=c1c2cc(F)ccc2n2c(=S)[nH]nc2n1CCC1CCC(F)(F)CC1`: the solubility in series [1] is under 1 µg/mL. For the same compound, in series [3], the t1/2 is over 30 min. Also, the Papp in the series “in vitro” worked out at 201 ×10⁻⁶ cm/s.
For `CN(C)c1ccc2c(c1)c(=O)n(CCc1ccccc1)c1n[nH]c(=S)n21` the same measures were under 1 µg/mL, 13.3 min and 356 ×10⁻⁶ cm/s.
For `O=c1c2cc(F)ccc2n2c(=S)[nH]nc2n1CCN1CCC(F)(F)CC1`, the solubility in series [1] was found to be 20.2 µg/mL (≈ 52.7 µM). Moreover, the t1/2 in series [3] is reported as over 30 min. This compound also yielded a Papp in the series “in vitro” of 234 ×10⁻⁶ cm/s.
On to `CC(=O)Nc1ccc2c(c1)c(=O)n(CCc1ccccc1)c1n[nH]c(=S)n21`, for which the solubility in series [1] turned out to be 2.2 µg/mL (≈ 5.8 µM). Further, in series [3], the t1/2 was over 30 min. In “in vitro”, this compound returned a Papp of 253 ×10⁻⁶ cm/s.
For `O=C(O)CCC(=O)NCCCn1c(=O)c2cc(F)ccc2n2c(=S)[nH]nc12` the same measures were over 58 µg/mL, over 30 min and under 1 ×10⁻⁶ cm/s.
Compound `O=c1c2cc(F)ccc2n2cnnc2n1CCc1ccccc1` showed a solubility in series [1] of 14.8 µg/mL (≈ 48 µM). For the same compound, in series [3], the t1/2 stood at 11.8 min. The Papp in the series “in vitro” amounted to 924 ×10⁻⁶ cm/s.
